Assays:
Assay in all cases: relative viability (nuclei count vs DMSO), 5 days (fraction); higher = more cells survive
Quizartinib + Tozasertib = compound: CC(C)(C)c1cc(NC(=O)Nc2ccc(-c3cn4c(n3)sc3cc(OCCN5CCOCC5)ccc34)cc2)no1 [Quizartinib] + Cc1cc(Nc2cc(N3CCN(C)CC3)nc(Sc3ccc(NC(=O)C4CC4)cc3)n2)n[nH]1 [Tozasertib] (partner 0.1 µM)
How it was run: (§1)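 For relative viability, nuclei counts in treated wells were divided by those in vehicle wells. Lung cancer cell lines had been pin-tool dosed in 1536-well plates the day after seeding and cultured for 5 days, then fixed and stained in one step (final 0.05% Triton X-100, 1% formaldehyde, 1 ug/ml Hoechst) and imaged at 4×. Doses were one drug alone or a fixed anchor-drug dose plus five library-drug doses (not always all listed) in √10 steps, and values are duplicate-plate medians.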

Quizartinib + AZD7762 = compound: CC(C)(C)c1cc(NC(=O)Nc2ccc(-c3cn4c(n3)sc3cc(OCCN5CCOCC5)ccc34)cc2)no1 [Quizartinib] + NC(=O)Nc1cc(-c2cccc(F)c2)sc1C(=O)N[C@H]1CCCNC1 [AZD7762] (partner 0.2 µM)
How it was run: as §1

Quizartinib + Pemetrexed = compound: CC(C)(C)c1cc(NC(=O)Nc2ccc(-c3cn4c(n3)sc3cc(OCCN5CCOCC5)ccc34)cc2)no1 [Quizartinib] + Nc1nc2[nH]cc(CCc3ccc(C(=O)N[C@@H](CCC(=O)O)C(=O)O)cc3)c2c(=O)[nH]1 [Pemetrexed] (partner 0.2 µM)
How it was run: as §1

YM155 + Phenformin = compound: COCC[n+]1c2c(n(Cc3cnccn3)c1C)C(=O)c1ccccc1C2=O [YM155] + N=C(N)NC(=N)NCCc1ccccc1 [Phenformin] (partner 250 µM)
How it was run: as §1

Cell Line | relative viability (Quizartinib + Tozasertib; first compound 0.001 µM) | relative viability (Quizartinib + Tozasertib; first compound 0.003162 µM) | relative viability (Quizartinib + Tozasertib; first compound 0.01 µM) | relative viability (Quizartinib + Tozasertib; first compound 0.03162 µM) | relative viability (Quizartinib + Tozasertib; first compound 0.1 µM) | relative viability (Quizartinib + AZD7762; first compound 0.001 µM) | relative viability (Quizartinib + AZD7762; first compound 0.003162 µM) | relative viability (Quizartinib + AZD7762; first compound 0.01 µM) | relative viability (Quizartinib + AZD7762; first compound 0.03162 µM) | relative viability (Quizartinib + AZD7762; first compound 0.1 µM) | relative viability (Quizartinib + Pemetrexed; first compound 0.001 µM) | relative viability (Quizartinib + Pemetrexed; first compound 0.003162 µM) | relative viability (Quizartinib + Pemetrexed; first compound 0.01 µM) | relative viability (Quizartinib + Pemetrexed; first compound 0.03162 µM) | relative viability (Quizartinib + Pemetrexed; first compound 0.1 µM) | relative viability (YM155 + Phenformin; first compound 0.002 µM) | relative viability (YM155 + Phenformin; first compound 0.006325 µM) | relative viability (YM155 + Phenformin; first compound 0.02 µM) | relative viability (YM155 + Phenformin; first compound 0.06325 µM)
NCI-H1355 | 0.495 | 0.542 | 0.51 | 0.442 | 0.433 | 0.715 | 0.828 | 0.622 | 0.835 | 0.736 | 0.972 | 1.03 | 0.92 | 1.09 | 0.935 | 0.442 | 0.46 | 0.493 | 0.499
HCC-366 | 0.11 | 0.0914 | 0.0628 | 0.0575 | 0.0582 | 0.272 | 0.181 | 0.285 | 0.119 | 0.199 | 0.148 | 0.148 | 0.129 | 0.165 | 0.178 | 0.592 | 0.55 | 0.628 | 0.597
NCI-H1915 | 0.419 | 0.427 | 0.42 | 0.401 | 0.389 | 0.683 | 0.613 | 0.646 | 0.694 | 0.721 | 0.49 | 0.47 | 0.552 | 0.477 | 0.488 | 0.351 | 0.357 | 0.368 | 0.355
HARA |  | 0.101 | 0.102 | 0.0944 | 0.122 | 0.401 | 0.193 | 0.515 | 0.26 | 0.334 | 0.257 | 0.266 | 0.266 | 0.222 | 0.304 | 0.476 | 0.444 | 0.48 | 0.425
NCI-H358 | 0.0852 | 0.0998 | 0.115 | 0.102 | 0.0995 | 0.578 | 0.448 | 0.555 |  | 0.5 | 0.164 | 0.148 | 0.223 |  | 0.155 | 0.325 | 0.315 | 0.37 | 0.351
PC-3 [JPC-3] | 0.835 | 0.849 | 0.909 | 0.849 | 0.852 | 0.545 | 0.811 | 0.781 | 0.75 | 0.766 | 0.845 | 1.12 | 0.852 | 1 | 1.17 | 0.454 | 0.521 | 0.475 | 0.473
LXF-289 | 0.16 | 0.207 | 0.196 | 0.21 | 0.247 | 0.816 | 1.08 | 1.09 | 1.11 | 1.12 | 0.789 | 0.827 | 1 | 0.83 | 0.867 | 0.522 | 0.524 | 0.506 | 0.532
NCI-H2170 | 0.665 | 0.654 | 0.853 | 0.749 | 0.804 | 0.906 | 0.848 | 0.914 | 0.973 | 1.03 | 0.252 | 0.242 | 0.279 | 0.293 | 0.277 | 0.416 | 0.4 | 0.413 | 0.408
NCI-H2126 | 0.751 | 0.848 | 0.831 |  | 0.846 | 1.03 | 0.923 | 0.982 | 0.954 | 1.01 | 0.682 | 0.658 | 0.765 | 0.663 | 0.689 | 0.508 | 0.597 | 0.555 | 0.522
NCI-H1755 | 0.583 | 0.536 | 0.569 | 0.626 | 0.48 | 0.486 | 0.392 | 0.489 | 0.526 | 0.434 | 0.316 | 0.399 | 0.412 | 0.464 | 0.378 | 0.626 | 0.575 | 0.602 | 0.657
HCC-827 | 0.356 | 0.516 | 0.458 | 0.405 | 0.411 | 0.344 | 0.196 |  | 0.177 | 0.247 | 0.237 | 0.249 |  | 0.24 | 0.276 | 0.419 | 0.404 | 0.375 | 0.473
NCI-H838 | 0.249 | 0.22 | 0.3 | 0.276 | 0.22 | 0.769 | 0.925 | 1.04 | 0.859 | 0.902 | 0.244 | 0.231 | 0.268 | 0.257 | 0.236 | 0.54 | 0.625 | 0.583 | 0.717
NCI-H3122 |  | 0.368 | 0.483 |  | 0.337 | 0.964 | 1.02 | 0.971 | 1.02 | 0.962 | 0.185 | 0.201 | 0.193 | 0.2 | 0.211 | 0.362 | 0.36 | 0.384 | 0.364
HCC-78 | 0.453 | 0.325 | 0.365 | 0.368 | 0.384 | 0.671 | 0.805 | 0.539 | 0.535 | 0.777 | 0.915 | 0.882 | 0.968 | 0.869 | 0.917 | 0.638 | 0.73 | 0.779 | 0.76
NCI-H322M | 0.393 | 0.468 | 0.505 | 0.511 | 0.558 | 0.531 | 0.56 | 0.557 | 0.531 | 0.705 | 0.6 | 0.662 | 0.639 | 0.62 | 0.703 | 0.775 | 0.837 | 0.849 | 0.852
NCI-H1975 | 0.71 | 0.809 | 0.488 | 0.372 | 0.16 | 0.729 | 0.721 | 0.743 | 0.587 | 0.651 | 0.283 | 0.306 | 0.316 | 0.295 | 0.294 | 0.384 | 0.415 | 0.406 | 0.395
NCI-H23 |  | 0.343 | 0.405 | 0.249 | 0.231 | 0.302 | 0.173 | 0.277 | 0.195 | 0.25 | 0.6 | 0.62 | 0.639 | 0.593 | 0.635 | 0.735 | 0.774 | 0.729 | 0.634

— the supplement of paper PMC10307832
